From ChEMBL document CHEMBL1155252 (Bioorg Med Chem, 2009) come the findings set out here.

Usually IC50 stands for the concentration at which inhibition is half-maximal. Low readings indicate inhibition by little substance, high ones a need for much substance. A word on the pIC50: it is −log10 of the IC50, conventionally taken in molar units. Read a low pIC50 as a high IC50.

The target of test [1] is 3',5'-cyclic-AMP phosphodiesterase 4B (Homo sapiens, UniProt Q07343). The experiment in a line: Inhibition of PDE4B by luciferase-coupled assay.
3',5'-cyclic-AMP phosphodiesterase 4B, sequence (Q07343 whole entry): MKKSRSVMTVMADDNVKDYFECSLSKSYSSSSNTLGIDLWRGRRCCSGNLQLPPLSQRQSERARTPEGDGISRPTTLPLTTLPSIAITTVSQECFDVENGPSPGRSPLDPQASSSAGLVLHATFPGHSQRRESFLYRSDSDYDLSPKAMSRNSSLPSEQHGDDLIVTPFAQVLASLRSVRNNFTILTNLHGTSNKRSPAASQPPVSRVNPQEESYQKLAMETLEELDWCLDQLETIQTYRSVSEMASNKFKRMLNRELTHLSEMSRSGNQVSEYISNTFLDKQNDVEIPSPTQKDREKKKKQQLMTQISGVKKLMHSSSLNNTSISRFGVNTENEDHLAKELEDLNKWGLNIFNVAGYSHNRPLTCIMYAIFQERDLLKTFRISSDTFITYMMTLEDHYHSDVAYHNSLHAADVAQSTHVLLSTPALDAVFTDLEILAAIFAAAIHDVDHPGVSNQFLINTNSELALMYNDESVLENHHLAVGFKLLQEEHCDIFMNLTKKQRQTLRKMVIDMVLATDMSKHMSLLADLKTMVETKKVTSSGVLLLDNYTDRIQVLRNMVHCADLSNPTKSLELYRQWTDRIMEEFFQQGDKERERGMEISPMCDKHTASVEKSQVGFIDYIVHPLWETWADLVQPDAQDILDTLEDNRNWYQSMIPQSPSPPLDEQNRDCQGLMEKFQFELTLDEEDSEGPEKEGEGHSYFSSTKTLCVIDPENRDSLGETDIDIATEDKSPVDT
Test [2] concerns the target 3',5'-cyclic-AMP phosphodiesterase 4D (Homo sapiens, UniProt Q08499). The experiment in a line: Inhibition of PDE4D by luciferase-coupled assay.
Test [3] is described as follows: Inhibition of bovine PDE3 by scintillation proximity assay. Also noted: species or system Bos taurus. For orientation: SPA uses beads or plates that emit light when radiolabelled molecules are held near them.
The target of test [4] is cGMP-specific 3',5'-cyclic phosphodiesterase (Homo sapiens, UniProt O76074). Description: Inhibition of human PDE5 by scintillation proximity assay.
Test [5] is described as follows: Selectivity for PDE4B over PDE4D.

A value given as a limit tells only on which side of the number the result lay.

3',5'-cyclic-AMP phosphodiesterase 4D, sequence (Q08499 whole entry): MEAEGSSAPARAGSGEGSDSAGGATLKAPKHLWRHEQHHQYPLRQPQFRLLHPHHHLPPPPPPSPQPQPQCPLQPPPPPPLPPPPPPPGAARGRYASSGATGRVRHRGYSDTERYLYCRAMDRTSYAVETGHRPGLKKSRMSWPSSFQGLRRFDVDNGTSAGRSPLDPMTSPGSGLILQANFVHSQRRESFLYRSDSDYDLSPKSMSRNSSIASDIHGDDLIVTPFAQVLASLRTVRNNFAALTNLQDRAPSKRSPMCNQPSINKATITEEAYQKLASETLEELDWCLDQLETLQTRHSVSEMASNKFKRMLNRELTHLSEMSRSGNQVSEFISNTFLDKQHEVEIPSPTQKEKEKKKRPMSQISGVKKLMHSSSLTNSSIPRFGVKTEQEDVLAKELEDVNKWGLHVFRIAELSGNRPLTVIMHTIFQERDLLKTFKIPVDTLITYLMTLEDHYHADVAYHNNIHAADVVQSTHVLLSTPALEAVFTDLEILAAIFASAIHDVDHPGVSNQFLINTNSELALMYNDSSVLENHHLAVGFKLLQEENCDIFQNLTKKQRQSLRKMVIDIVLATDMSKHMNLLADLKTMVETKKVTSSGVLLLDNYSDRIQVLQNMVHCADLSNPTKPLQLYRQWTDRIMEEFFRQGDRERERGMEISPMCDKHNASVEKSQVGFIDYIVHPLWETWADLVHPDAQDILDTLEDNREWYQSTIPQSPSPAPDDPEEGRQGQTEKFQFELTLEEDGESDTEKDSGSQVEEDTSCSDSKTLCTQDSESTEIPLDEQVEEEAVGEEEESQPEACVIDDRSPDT

Turning to `CC1CCCc2sc(NC(=O)c3ccccc3[N+](=O)[O-])c(C(N)=O)c21` (stereo unspecified), the IC50 in test [1] is 5.01 µM; in test [2], 31.6 µM.
Take `Cc1cccc(C)c1C1CCCc2sc(NC(=O)c3ccccc3[N+](=O)[O-])c(C(N)=O)c21` (stereo unspecified): the values for the IC50 in test [1] and in test [2] were 5.01 µM and 2.51 µM, respectively.
`NC(=O)c1c(NC(=O)c2ccccc2[N+](=O)[O-])sc2c1CCC(c1ccccc1)C2` (stereo unspecified): the concentration for half-maximal inhibition (IC50) in test [1] was 0.398 µM; in test [2], 1.58 µM.
For `CNC(=O)c1c(NC(=O)c2c(F)cccc2F)sc2c1CCC(C(C)(C)C)C2` (stereo unspecified), the IC50 in test [1] was > 10 µM.
As to `CC(C)(C)C1CCc2c(sc(NC(=O)c3c(F)cccc3F)c2C(N)=O)C1` (stereo unspecified), it took 0.0794 µM to reach half-maximal inhibition in test [1] (IC50).
Turning to `CC(C)(C)C1CCc2c(sc(NC(=O)c3ccncc3)c2C(N)=O)C1` (stereo unspecified), the pIC50 in test [3] is recorded as < 5. Further, the results for the IC50 in test [1], in test [2] and in test [4] were 0.2 µM, 0.316 µM and > 10 µM, respectively.
On to `NC(=O)c1c(NC(=O)c2ccccc2[N+](=O)[O-])sc2c1CCCC2`, for which the IC50 is 1.26 µM in test [1] and 6.31 µM in test [2].
As for `CC1CCc2c(sc(NC(=O)c3cccc([N+](=O)[O-])c3)c2C(N)=O)C1` (stereo unspecified), the IC50 in test [1] was 0.631 µM; in test [2], > 2.51 µM.
`CCCCCC1CCc2c(sc(NC(=O)c3ccccc3[N+](=O)[O-])c2C(N)=O)C1` (stereo unspecified): the IC50 in test [1] is 0.1 µM; in test [2], 2.51 µM.
In the same order, the values of `CC(C)(C)C1CCc2c(sc(NC(=O)c3ccccc3[N+](=O)[O-])c2C(N)=O)C1` (stereo unspecified) are 0.0251 µM and 0.126 µM.
As to `CC1CCc2c(sc(NC(=O)c3ccc([N+](=O)[O-])cc3)c2C(N)=O)C1` (stereo unspecified), the IC50 in test [1] and in test [2] was > 2.51 µM each time.
`CC1(C)CCc2c(sc(NC(=O)c3ccccc3[N+](=O)[O-])c2C(N)=O)C1`: the IC50 in test [1] was 0.0501 µM; in test [2], 0.398 µM.
As for `CCC1CCc2c(sc(NC(=O)c3ccccc3[N+](=O)[O-])c2C(N)=O)C1` (stereo unspecified), the results for the IC50 in test [1] and in test [2] were 0.01 µM and 0.126 µM, respectively. The compound further gave a Selectivity Index in test [5] of 10.
Take `CC1CCc2sc(NC(=O)c3ccccc3[N+](=O)[O-])c(C(N)=O)c2C1` (stereo unspecified): the figures for the IC50 in test [1] and in test [2] were 2 µM and 6.31 µM, respectively.
As to `CC(C)(C)C1CCc2sc(NC(=O)c3ccccc3[N+](=O)[O-])c(C(N)=O)c2C1` (stereo unspecified), the results for the IC50 in test [1] and in test [2] were 1.26 µM and 6.31 µM, respectively.
